In patent publication US8895753B2, “S1P receptor modulating agent” (Meiji Seika Pharma Co., Ltd., priority 2011, dated 2014):

How the values were obtained:
[1] = target: T1, Human S1P1 receptor (Homo sapiens, UniProt P21453); assay: Agonist activity at an S1P1 receptor ([35S]-GTPγS exchange reaction, membrane fractions); type: biochemical; conditions: read-out: EC50, agonist activity at S1P1 receptor (GTP exchange reaction)
Protocol: (§1) By using membrane fractions prepared from a human S1P1 receptor expressing cells (Multispan Ltd.), the agonist activity of each test compound was measured by [^35S]-GTPγS exchange reaction in accordance with a standard procedure (Methods in Molecular Biology, Vol. 552, p 143-151 (2009)), and EC50 (nM) of each test compound was computed.

[2] = target: T2, Human S1P4 receptor (Homo sapiens, UniProt O95977); assay: Agonist activity at an S1P4 receptor (calcium influx); type: cell-based; conditions: at 1000 nM; read-out: activity at S1P4 receptor (elevation of intracellular calcium)
T2 sequence (O95977 1-384): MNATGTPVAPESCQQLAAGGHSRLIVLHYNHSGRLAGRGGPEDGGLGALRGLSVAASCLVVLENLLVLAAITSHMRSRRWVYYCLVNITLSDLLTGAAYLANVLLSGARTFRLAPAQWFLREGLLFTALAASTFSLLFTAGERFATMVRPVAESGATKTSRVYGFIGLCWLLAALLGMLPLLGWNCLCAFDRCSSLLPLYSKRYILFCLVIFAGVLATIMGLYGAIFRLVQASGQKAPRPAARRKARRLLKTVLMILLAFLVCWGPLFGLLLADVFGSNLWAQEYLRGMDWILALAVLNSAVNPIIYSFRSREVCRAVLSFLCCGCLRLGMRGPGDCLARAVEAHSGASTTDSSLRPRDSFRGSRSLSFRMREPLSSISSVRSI
Protocol: By using Human S1P4 receptor expressing cells (Multispan Inc. CG1052-1), the elevation of intracellular calcium concentration via agonist activity by the addition of 1000 nM was measured by Fret method (fluorescence resonance energy transfer).

[3] = target: T1, Human S1P1 receptor; assay: Agonist activity at an S1P1 receptor (reporter assay, EDG1-bla/U2OS cells); type: cell-based; design: host or cells: U2OS (EDG1-bla/U2OS); conditions: S1P maximum response = 100%
Protocol: Human S1P1 receptor gene recombinant EDG1-bla/U2OS cells (Life Technologies Japan Ltd.) were plated in a 96-well half-sized clear bottom black plate at a density of 10000 cells/32 μL/well, and then the plate was incubated at 37° C. in a 5% CO2 incubator for 48 hours. A culture medium containing each test compound prepared as a 5× concentrate was added at 8 μL/well, and the plate was incubated at 37° C. in a 5% CO2 incubator for 5 hours. The substrate (LiveBLAzer™-FRET B/G substrate (CCF4-AM), Life Technologies Japan Ltd.) prepared as a 6× concentrate was added at 8 μL into each well, and the plate was incubated at room temperature for 2 hours in the dark. The fluorescence intensity of each well was detected using a bottom-reading fluorescence microplate reader (EnVision: ParkinElmer) at one excitation wavelength and 2 wavelengths for fluorescence emission (Ex409 nm, Em460 nm, Em530 nm). The intensity ratio of fluorescence at 460 nm/530 nm was calculated for each well. The maximum response ratio confirmed from the dose response of SIP was expressed as 100%. The concentration of a test compound required to stimulate 50% of its maximal activation was computed as EC50 (nM).

[4] = target: Human S1P3 receptor (Homo sapiens, UniProt Q99500); assay: Agonist activity at an S1P3 receptor ([35S]-GTPγS exchange reaction at 1000 nM); type: biochemical; conditions: read-out: percent of the maximal agonist activity at S1P3 receptor
Human S1P3 receptor, sequence (Q99500 whole entry): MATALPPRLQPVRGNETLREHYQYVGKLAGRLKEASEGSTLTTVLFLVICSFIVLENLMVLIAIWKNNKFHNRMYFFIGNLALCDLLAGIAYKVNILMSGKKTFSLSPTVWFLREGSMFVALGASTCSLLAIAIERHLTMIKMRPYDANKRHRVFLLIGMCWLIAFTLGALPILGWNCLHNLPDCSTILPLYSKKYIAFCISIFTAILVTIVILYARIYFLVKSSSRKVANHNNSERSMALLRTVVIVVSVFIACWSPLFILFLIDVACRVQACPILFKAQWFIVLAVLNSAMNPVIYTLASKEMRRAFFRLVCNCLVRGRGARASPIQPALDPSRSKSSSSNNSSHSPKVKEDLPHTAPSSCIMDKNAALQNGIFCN
Protocol: as §1
By using membrane fractions prepared from Human S1P3 receptor expressing cells (Multispan Inc.), the agonist activity of the compound in the present invention was measured by a [^35S]-GTPγS exchange reaction at 1000 nM by the similar method of the Experimental Example 2.

T1 sequence (P21453 whole entry): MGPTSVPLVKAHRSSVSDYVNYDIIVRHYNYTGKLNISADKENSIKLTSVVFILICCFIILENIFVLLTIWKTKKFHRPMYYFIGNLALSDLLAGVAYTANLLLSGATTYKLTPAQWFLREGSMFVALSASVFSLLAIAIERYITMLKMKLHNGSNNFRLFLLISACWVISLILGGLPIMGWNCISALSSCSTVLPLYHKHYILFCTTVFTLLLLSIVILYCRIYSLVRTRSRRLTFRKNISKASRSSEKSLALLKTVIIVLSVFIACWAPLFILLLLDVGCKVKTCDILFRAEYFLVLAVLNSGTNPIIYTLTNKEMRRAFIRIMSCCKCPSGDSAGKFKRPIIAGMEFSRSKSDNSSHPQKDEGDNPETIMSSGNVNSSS

Compound	EC50 [1] [nM]	activation at 1 µM [2] [%]	EC50 [3] [nM]	Emax at 1 µM [4] [%]
O=C(O)C1CN(Cc2ccc(-c3ncc(-c4ccc(C5CCCCC5)cc4)s3)cc2)C1 [Example 36, 1-(4-(5-(4-cyclohexylphenyl)thiazol-2-yl)benzyl)azetidine-3-carboxylic acid]	≤ 100	< 20	≤ 10	< 20
CCCc1ccc(-c2cnc(-c3ccc(CN4CC(C(=O)O)C4)cc3)s2)cc1 [Example 45, 1-(4-(5-(4-propylphenyl)thiazol-2-yl)benzyl)azetidine-3-carboxylic acid]	≤ 50	< 20	≤ 10	< 20
CC(C)c1ccc(-c2cnc(-c3ccc(CN4CC(C(=O)O)C4)cc3)s2)cc1 [Example 46, 1-(4-(5-(4-isopropylphenyl)thiazol-2-yl)benzyl)azetidine-3-carboxylic acid]	≤ 50	< 20	≤ 10	< 20
CCCCc1ccc(-c2cnc(-c3ccc(CN4CC(C(=O)O)C4)cc3)s2)cc1 [Example 47, 1-(4-(5-(4-butylphenyl)thiazol-2-yl)benzyl)azetidine-3-carboxylic acid]	≤ 50	< 20	≤ 10	< 20
CC(C)Cc1ccc(-c2cnc(-c3ccc(CN4CC(C(=O)O)C4)cc3)s2)cc1 [Example 48, 1-(4-(5-(4-isobutylphenyl)thiazol-2-yl)benzyl)azetidine-3-carboxylic acid]	≤ 50	< 20	≤ 1	20 to 50
CC(C)Oc1ccc(-c2cnc(-c3ccc(CN4CC(C(=O)O)C4)cc3)s2)cc1C#N [Example 50, 1-(4-(5-(3-cyano-4-isopropoxyphenyl)thiazol-2-yl)benzyl)azetidine-3-carboxylic acid]	≤ 50	< 20	≤ 1	20 to 50
O=C(O)C1CN(Cc2ccc(-c3ncc(-c4ccc(OC5CCC5)cc4)s3)cc2)C1 [Example 51, 1-(4-(5-(4-cyclobutoxyphenyl)thiazol-2-yl)benzyl)azetidine-3-carboxylic acid]	≤ 500	< 20	≤ 100	20 to 50
Cc1cc(-c2cnc(-c3ccc(CN4CC(C(=O)O)C4)cc3)s2)ccc1OC(C)C [Example 52, 1-(4-(5-(4-isopropoxy-3-methylphenyl)thiazol-2-yl)benzyl)azetidine-3-carboxylic acid]	≤ 50	< 20	≤ 1	20 to 50

Now from value to compound:

EC50 [1] [nM]	activation at 1 µM [2] [%]	EC50 [3] [nM]	Emax at 1 µM [4] [%]	Compound
≤ 50	< 20	≤ 10	< 20	CC(C)Oc1ccc(-c2cnc(-c3ccc(CN4CC(C(=O)O)C4)c(Cl)c3)s2)cc1 [Example 23, 1-(2-chloro-4-(5-(4-isopropoxyphenyl)thiazol-2-yl)benzyl)azetidine-3-carboxylic acid]
≤ 50	< 20	≤ 100	< 20	CCOc1ccc(-c2cnc(-c3ccc(CN4CC(C(=O)O)C4)cc3)s2)cc1 [Example 31, 1-(4-(5-(4-ethoxyphenyl)thiazol-2-yl)benzyl)azetidine-3-carboxylic acid]
≤ 10	< 20	≤ 1	< 20	O=C(O)C1CN(Cc2ccc(-c3ncc(-c4ccc(C5CCCC5)cc4)s3)cc2)C1 [Example 34, 1-(4-(5-(4-cyclopentylphenyl)thiazol-2-yl)benzyl)azetidine-3-carboxylic acid]
≤ 10	< 20	≤ 1	20 to 50	Cc1cc(CN2CC(C(=O)O)C2)ccc1-c1ncc(-c2ccc(OC(C)C)c(Cl)c2)s1 [Example 37, 1-(4-(5-(3-chloro-4-isopropoxyphenyl)thiazol-2-yl)-3-methylbenzyl)azetidine-3-carboxylic acid]
≤ 50	< 20	≤ 100	< 20	CCCOc1ccc(-c2cnc(-c3ccc(CN4CC(C(=O)O)C4)cc3)s2)cc1 [Example 38]
